Results taken from patent publication US8337914B2, “Dietary food supplement containing natural cyclooxygenase inhibitors and methods for inhibiting pain and inflammation” (Access Business Group International LLC, priority 1999, dated 2012).

Target: T1, COX-2 (Homo sapiens, UniProt P35354)
T1 construct: purchased
T1 sequence (P35354 18-604): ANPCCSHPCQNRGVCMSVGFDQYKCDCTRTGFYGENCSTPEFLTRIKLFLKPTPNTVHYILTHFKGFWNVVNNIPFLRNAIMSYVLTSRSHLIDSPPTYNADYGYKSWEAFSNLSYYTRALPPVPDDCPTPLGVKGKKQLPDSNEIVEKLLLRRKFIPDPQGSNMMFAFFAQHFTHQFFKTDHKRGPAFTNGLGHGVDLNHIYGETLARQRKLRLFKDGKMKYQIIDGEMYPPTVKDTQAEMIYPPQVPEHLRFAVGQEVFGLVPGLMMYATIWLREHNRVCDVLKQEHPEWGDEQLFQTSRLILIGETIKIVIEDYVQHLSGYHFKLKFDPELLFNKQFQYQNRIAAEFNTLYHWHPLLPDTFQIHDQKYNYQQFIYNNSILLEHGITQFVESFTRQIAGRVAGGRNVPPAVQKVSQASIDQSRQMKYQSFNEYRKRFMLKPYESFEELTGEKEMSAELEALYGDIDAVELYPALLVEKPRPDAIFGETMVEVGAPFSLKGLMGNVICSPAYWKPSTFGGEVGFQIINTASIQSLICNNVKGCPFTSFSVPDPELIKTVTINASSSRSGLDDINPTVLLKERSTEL
Test: COX-2 enzyme assay with oxygen monitoring system (Example 3)
Assay type: biochemical
Conditions: for Specific Activity: the higher this number the more selective for COX-2 as opposed to COX-1
Method: The present example describes an enzyme assay method using an oxygen monitoring system to monitor the COX inhibitory activity of fruit extracts. In this assay the changes of concentration of dissolved oxygen are constantly monitored by an oxygen electrode in a Dissolved Oxygen Measuring System (Instech, Plymouth Meeting, Pa.). The output is recorded by a linear Recorder (Fisher Scientific, Pittsburgh, Pa.).
Each day a fresh potassium chloride solution (15 g/100 ml distilled water) was made and the electrode was set up according to manufacturers instructions. The chamber is kept at 37° C.
A prostaglandin assay kit was used and the assay set up in a manner similar to that described for the COX-1 assay. Briefly, 50 μl phenol was added to 20 ml 100 mM Tris buffer, warmed to 37° C. for 1 minute (working buffer). To a tube of hematin 0.9 ml of the working buffer was added. 50 μl 0.1NaOH was added to an arachidonic acid vial and vortexed. 0.43 ml water was added and the solution mixed again. Samples of extracts were weighed and dissolved in the working buffer to a final concentration of 0.1 g/ml. Buffer, samples or diluted samples are used in the enzyme assays directly.
The enzyme assay is performed according to the manufacturer's instruction, which should be well known to those of skill in the art. Briefly, 600 μl of working buffer were drawn into the chamber from the overflow outlet with the injection valve close, and the main outlet connected to a syringe in the right orientation. The stir bar was set a speed of 3 k/min. At 1 minute intervals, 5 ul enzyme, 15 ul hematin solution, 6 ul buffer or sample or diluted sample and 8 ul arachidonic acid solution was injected. The oxygen concentration changes were transformed into mV and recorded.

Structure (SMILES)	Specific Activity	Potency compared to Celebrex (COX-2 potency relative to Celebrex)
CC(=O)Oc1ccccc1C(=O)O [Aspirin]	0.5	
O=c1c(O)c(-c2ccc(O)c(O)c2)oc2cc(O)cc(O)c12 [Quercetin standard, Quercetin]	6.3	78%
